Molecular target: T1, Nostoc sp. PCC73102 amylopullulanase, SEQ ID NO: 4, recombinant from pETNPul6xH with C-terminal Leu-Glu-6His (노스탁속 균주 유래 아밀로플루란네이즈) (Nostoc punctiforme (strain ATCC 29133 / PCC 73102), UniProt B2IUW9)
T1 sequence (B2IUW9 1-488): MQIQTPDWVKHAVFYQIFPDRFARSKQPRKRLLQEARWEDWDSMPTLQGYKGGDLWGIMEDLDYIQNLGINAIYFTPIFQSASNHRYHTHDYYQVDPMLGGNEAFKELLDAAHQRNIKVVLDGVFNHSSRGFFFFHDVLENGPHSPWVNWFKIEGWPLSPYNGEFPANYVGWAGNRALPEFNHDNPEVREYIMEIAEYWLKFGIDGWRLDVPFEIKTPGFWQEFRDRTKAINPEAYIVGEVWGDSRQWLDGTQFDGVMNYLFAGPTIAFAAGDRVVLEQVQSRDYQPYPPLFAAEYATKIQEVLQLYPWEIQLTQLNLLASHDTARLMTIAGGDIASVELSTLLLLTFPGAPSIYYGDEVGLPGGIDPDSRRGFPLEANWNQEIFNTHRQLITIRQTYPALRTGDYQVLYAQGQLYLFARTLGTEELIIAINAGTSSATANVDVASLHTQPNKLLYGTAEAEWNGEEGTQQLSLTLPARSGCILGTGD
Experiment: Kinetics of amylopullulanase on maltoheptaose, maltooctaose and maltononaose (Example 6-2, glucose quantified by GOD-POD method)
Type: biochemical
Settings: 25 °C, pH 7, 3 min

| SMILES | Km, ratio to Km of maltononaose (relative to maltononaose (G9)) | Km, ratio to Km of maltooctaose (relative to maltooctaose (G8)) | Kcat, ratio to Kcat of maltoheptaose (relative to maltoheptaose (G7)) |
| --- | --- | --- | --- |
| OC[C@H]1O[C@H](O[C@H]2[C@H](O)[C@@H](O)[C@@H](O[C@H]3[C@H](O)[C@@H](O)[C@@H](O[C@H]4[C@H](O)[C@@H](O)[C@@H](O[C@H]5[C@H](O)[C@@H](O)[C@@H](O[C@H]6[C@H](O)[C@@H](O)[C@@H](O[C@H]7[C@H](O)[C@@H](O)C(O)O[C@@H]7CO)O[C@@H]6CO)O[C@@H]5CO)O[C@@H]4CO)O[C@@H]3CO)O[C@@H]2CO)[C@H](O)[C@@H](O)[C@@H]1O (stereo partly drawn) [말토헵타오스, maltoheptaose] | 20 배 (fold) | 7 배 (fold) |  |
| OC[C@H]1O[C@H](O[C@H]2[C@H](O)[C@@H](O)[C@@H](O[C@H]3[C@H](O)[C@@H](O)[C@@H](O[C@H]4[C@H](O)[C@@H](O)[C@@H](O[C@H]5[C@H](O)[C@@H](O)[C@@H](O[C@H]6[C@H](O)[C@@H](O)[C@@H](O[C@H]7[C@H](O)[C@@H](O)[C@@H](O[C@H]8[C@H](O)[C@@H](O)[C@@H](O[C@H]9[C@H](O)[C@@H](O)C(O)O[C@@H]9CO)O[C@@H]8CO)O[C@@H]7CO)O[C@@H]6CO)O[C@@H]5CO)O[C@@H]4CO)O[C@@H]3CO)O[C@@H]2CO)[C@H](O)[C@@H](O)[C@@H]1O (stereo partly drawn) [말토노나오스, maltononaose] |  |  | ~3 배 (fold) |
